From patent US20250206757A1 (GASHERBRUM BIO, INC., priority 2022, published 2025) come the findings set out here.

This experiment has as its target GLP-1 Receptor (Homo sapiens, UniProt P43220). The experiment is described as follows: GLP-1R agonist cAMP stimulation assay (HEK293/GLP1R/CRE-LUC cells, HTRF cAMP dynamic 2 kit). Format: cell-based. The settings on record: HEK293/CRE-Luc cell line stably expressing the GLP-1 Receptor; 30 min incubation at 37° C. The procedure, abridged:
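HEK293 cells stably expressing GLP-1R with CRE-Luc, 1000 cells/well in DPBS with 0.5 mM IBMX and 0.10% BSA, exposed to half-log compound dilutions for 30 min at 37 °C. cAMP measured by HTRF (665/615 nm) after 1 h at room temperature.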

Chain of GLP-1 Receptor (P43220 24-463): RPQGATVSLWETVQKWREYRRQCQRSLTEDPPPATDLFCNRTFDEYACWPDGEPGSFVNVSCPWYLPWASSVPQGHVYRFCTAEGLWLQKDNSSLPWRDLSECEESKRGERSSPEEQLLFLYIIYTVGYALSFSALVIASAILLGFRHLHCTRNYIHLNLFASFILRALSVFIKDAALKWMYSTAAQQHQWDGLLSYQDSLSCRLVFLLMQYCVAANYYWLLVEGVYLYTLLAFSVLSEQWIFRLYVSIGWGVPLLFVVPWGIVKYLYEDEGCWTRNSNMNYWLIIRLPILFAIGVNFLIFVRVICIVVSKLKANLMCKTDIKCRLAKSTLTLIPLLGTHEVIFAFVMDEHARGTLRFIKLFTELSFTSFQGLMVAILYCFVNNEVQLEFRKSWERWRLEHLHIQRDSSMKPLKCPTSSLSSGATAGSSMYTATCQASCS

Compound `O=C(O)CCn1cc(-c2cnc3c(c2)nc(CN2CCc4cc(C(F)(F)F)c(OCc5ccc(Cl)cc5F)nc4C2)n3C[C@@H]2CCO2)nn1` [Compound 99, 3-{4-[2-({2-[(4-chloro-2-fluorophenyl)methoxy]-3-(trifluoromethyl)-5,6,7,8-tetrahydro-1,7-naphthyridin-7-yl}methyl)-3-{[(2S)-oxetan-2-yl]methyl}-3H-imidazo[4,5-b]pyridin-6-yl]-1H-1,2,3-triazol-1-yl}propanoic acid] displayed an EC50 of 1 to 300 nM.
Regarding `O=c1cc(-c2cc3nc(CN4CCc5cc(C(F)(F)F)c(OCc6ccc(Cl)cc6F)nc5C4)n(C[C@@H]4CCO4)c3cn2)cc[nH]1` [Compound 100, 4-[2-({2-[(4-chloro-2-fluorophenyl)methoxy]-3-(trifluoromethyl)-5,6,7,8-tetrahydro-1,7-naphthyridin-7-yl}methyl)-3-{1[(2S)-oxetan-2-yl]methyl}-3H-imidazo[4,5-c]pyridin-6-yl]-1,2-dihydropyridin-2-one], the concentration for a half-maximal effect (EC50) was more than 300 nM.
For `O=c1ccc(-c2cc3nc(CN4CCc5cc(C(F)(F)F)c(OCc6ccc(Cl)cc6F)nc5C4)n(C[C@@H]4CCO4)c3cn2)c[nH]1` [Compound 102, 5-[2-({2-[(4-chloro-2-fluorophenyl)methoxy]-3-(trifluoromethyl)-5,6,7,8-tetrahydro-1,7-naphthyridin-7-yl}methyl)-3-{[(2S)-oxetan-2-yl]methyl}-3H-imidazo[4,5-c]pyridin-6-yl]-1,2-dihydropyridin-2-one] the value was more than 300 nM; for `O=C(Nc1cc2nc(CN3CCc4cc(C(F)(F)F)c(OCc5ccc(Cl)cc5F)nc4C3)n(C[C@@H]3CCO3)c2cn1)c1cccnc1` [Compound 103, N-[2-({2-[(4-chloro-2-fluorophenyl)methoxy]-3-(trifluoromethyl)-5,6,7,8-tetrahydro-1,7-naphthyridin-7-yl}methyl)-3-{[(2S)-oxetan-2-yl]methyl}-3H-imidazo[4,5-c]pyridin-6-yl]pyridine-3-carboxamide], less than 1 nM.
Compound `O=c1[nH]c(-c2cc3nc(CN4CCc5cc(C(F)(F)F)c(NCc6ccc(Cl)cc6F)nc5C4)n(C[C@@H]4CCO4)c3cn2)no1` [Compound 104, 3-{2-[(2-{[(4-chloro-2-fluorophenyl)methyl]amino}-3-(trifluoromethyl)-5,6,7,8-tetrahydro-1,7-naphthyridin-7-yl)methyl]-3-{[(2S)-oxetan-2-yl]methyl}-3H-imidazo[4,5-c]pyridin-6-yl}-4,5-dihydro-1,2,4-oxadiazol-5-one] showed an EC50 of less than 1 nM.
For `O=c1[nH]c(-c2cc3nc(CN4CCc5cc(C(F)(F)F)c(NCc6c(F)cc(Cl)cc6F)nc5C4)n(C[C@@H]4CCO4)c3cn2)no1` [Compound 105, 3-{2-[(2-{[(4-chloro-2,6-difluorophenyl)methyl]amino}-3-(trifluoromethyl)-5,6,7,8-tetrahydro-1,7-naphthyridin-7-yl)methyl]-3-{[(2S)-oxetan-2-yl]methyl}-3H-imidazo[4,5-c]pyridin-6-yl}-4,5-dihydro-1,2,4-oxadiazol-5-one] the value was less than 1 nM; for `O=c1[nH]c(-c2ccc3c(nc(CN4CCc5cc(C(F)(F)F)c(NCc6ccc(Cl)cc6F)nc5C4)n3C[C@@H]3CCO3)c2F)no1` [Compound 106, 3-{2-[(2-{[(4-chloro-2-fluorophenyl)methyl]amino}-3-(trifluoromethyl)-5,6,7,8-tetrahydro-1,7-naphthyridin-7-yl)methyl]-4-fluoro-1-{[(2S)-oxetan-2-yl]methyl}-1H-1,3-benzodiazol-5-yl}-4,5-dihydro-1,2,4-oxadiazol-5-one], less than 1 nM.
For `NC(=O)c1nnc(-c2cc3nc(CN4CCc5cc(C(F)(F)F)c(NCc6ccc(Cl)cc6F)nc5C4)n(C[C@@H]4CCO4)c3cn2)[nH]1` [Compound 107, 5-{2-[(2-{[(4-chloro-2-fluorophenyl)methyl]amino}-3-(trifluoromethyl)-5,6,7,8-tetrahydro-1,7-naphthyridin-7-yl)methyl]-3-{[(2S)-oxetan-2-yl]methyl}-3H-imidazo[4,5-c]pyridin-6-yl}-4H-1,2,4-triazole-3-carboxamide] the value was less than 1 nM; for `N#Cc1nnc(-c2cc3nc(CN4CCc5cc(C(F)(F)F)c(NCc6ccc(Cl)cc6F)nc5C4)n(C[C@@H]4CCO4)c3cn2)[nH]1` [Compound 108, 5-{2-[(2-{[(4-chloro-2-fluorophenyl)methyl]amino}-3-(trifluoromethyl)-5,6,7,8-tetrahydro-1,7-naphthyridin-7-yl)methyl]-3-{[(2S)-oxetan-2-yl]methyl}-3H-imidazo[4,5-c]pyridin-6-yl}-4H-1,2,4-triazole-3-carbonitrile], less than 1 nM.
For `Fc1cc(Cl)ccc1CNc1nc2c(cc1C(F)(F)F)CCN(Cc1nc3cc(-c4nnc(C(F)(F)F)[nH]4)ncc3n1C[C@@H]1CCO1)C2` [Compound 109, N-[(4-chloro-2-fluorophenyl)methyl]-7-[(3-{1[(2S)-oxetan-2-yl]methyl}-6-[5-(trifluoromethyl)-4H-1,2,4-triazol-3-yl]-3H-imidazo[4,5-c]pyridin-2-yl)methyl]-3-(trifluoromethyl)-5,6,7,8-tetrahydro-1,7-naphthyridin-2-amine] the value was less than 1 nM; for `Fc1cc(Cl)cc(F)c1CNc1nc2c(cc1C(F)(F)F)CCN(Cc1nc3cc(-c4nnc(C5CC5)[nH]4)ncc3n1C[C@@H]1CCO1)C2` [Compound 110, N-[(4-chloro-2,6-difluorophenyl)methyl]-7-{[6-(5-cyclopropyl-4H-1,2,4-triazol-3-yl)-3-{[(2S)-oxetan-2-yl]methyl}-3H-imidazo[4,5-c]pyridin-2-yl]methyl}-3-(trifluoromethyl)-5,6,7,8-tetrahydro-1,7-naphthyridin-2-amine], less than 1 nM.
